ChEMBL document CHEMBL6071132, “Synthetic approaches and application of representative clinically approved fluorine-enriched anti-cancer medications” (Eur J Med Chem, 2024)
Where a name gives a salt, the structure may show the parent alone.

Legend:
KARPAS-299 = assay: cells; conditions: Homo sapiens, KARPAS-299, 72 h
Description: Antiproliferative activity against human KARPAS-299 cells assessed as inhibition of cell growth incubated for 72 hrs by celltiter-glo assay

[1] = biological target: Phosphatidylinositol 4,5-bisphosphate 3-kinase catalytic subunit gamma isoform (Homo sapiens, UniProt P48736); assay: Inhibition of PI3Kgamma (unknown origin)
Phosphatidylinositol 4,5-bisphosphate 3-kinase catalytic subunit gamma isoform, sequence (P48736 whole entry, canonical isoform): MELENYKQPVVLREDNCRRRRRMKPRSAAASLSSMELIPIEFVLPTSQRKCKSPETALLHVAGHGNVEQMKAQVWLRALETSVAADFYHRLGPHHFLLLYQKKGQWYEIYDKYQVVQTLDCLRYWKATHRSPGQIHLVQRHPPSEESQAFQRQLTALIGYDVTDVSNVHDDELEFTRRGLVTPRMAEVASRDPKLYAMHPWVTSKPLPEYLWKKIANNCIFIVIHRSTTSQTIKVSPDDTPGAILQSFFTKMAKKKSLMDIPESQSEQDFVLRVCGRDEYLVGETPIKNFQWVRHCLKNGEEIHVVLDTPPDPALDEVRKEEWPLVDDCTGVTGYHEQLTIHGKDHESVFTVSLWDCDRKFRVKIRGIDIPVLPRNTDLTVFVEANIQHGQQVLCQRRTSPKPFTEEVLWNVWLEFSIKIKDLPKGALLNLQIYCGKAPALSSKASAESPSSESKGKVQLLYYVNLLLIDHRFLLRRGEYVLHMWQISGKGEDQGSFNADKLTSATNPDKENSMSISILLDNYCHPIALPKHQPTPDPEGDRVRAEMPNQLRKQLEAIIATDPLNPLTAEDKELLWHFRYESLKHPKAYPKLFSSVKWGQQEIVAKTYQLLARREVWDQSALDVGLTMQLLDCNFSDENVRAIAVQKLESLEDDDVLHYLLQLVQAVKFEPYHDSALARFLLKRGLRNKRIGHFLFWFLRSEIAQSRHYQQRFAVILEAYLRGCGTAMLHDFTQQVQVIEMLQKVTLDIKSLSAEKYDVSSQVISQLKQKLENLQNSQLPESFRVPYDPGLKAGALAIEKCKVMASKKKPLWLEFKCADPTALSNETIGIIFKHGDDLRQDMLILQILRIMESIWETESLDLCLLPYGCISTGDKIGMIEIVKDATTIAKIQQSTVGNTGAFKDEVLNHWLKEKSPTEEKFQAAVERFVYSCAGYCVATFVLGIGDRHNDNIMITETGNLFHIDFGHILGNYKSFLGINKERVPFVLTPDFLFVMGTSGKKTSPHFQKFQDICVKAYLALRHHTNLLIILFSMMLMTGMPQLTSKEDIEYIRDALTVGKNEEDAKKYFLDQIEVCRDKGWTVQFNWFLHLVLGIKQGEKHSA

NCI-H358 = assay: Antiproliferative activity against human NCI-H358 cells assessed as reduction in cell viability; type: functional, cell-based
MIA PaCa-2 = assay: Antiproliferative activity against human MIA PaCa-2 cells assessed as reduction in cell viability; type: functional, cell-based
[2] = biological target: ALK tyrosine kinase receptor (Homo sapiens, UniProt Q9UM73); assay: Inhibition of ALK (unknown origin)
ALK tyrosine kinase receptor, sequence (Q9UM73 whole entry): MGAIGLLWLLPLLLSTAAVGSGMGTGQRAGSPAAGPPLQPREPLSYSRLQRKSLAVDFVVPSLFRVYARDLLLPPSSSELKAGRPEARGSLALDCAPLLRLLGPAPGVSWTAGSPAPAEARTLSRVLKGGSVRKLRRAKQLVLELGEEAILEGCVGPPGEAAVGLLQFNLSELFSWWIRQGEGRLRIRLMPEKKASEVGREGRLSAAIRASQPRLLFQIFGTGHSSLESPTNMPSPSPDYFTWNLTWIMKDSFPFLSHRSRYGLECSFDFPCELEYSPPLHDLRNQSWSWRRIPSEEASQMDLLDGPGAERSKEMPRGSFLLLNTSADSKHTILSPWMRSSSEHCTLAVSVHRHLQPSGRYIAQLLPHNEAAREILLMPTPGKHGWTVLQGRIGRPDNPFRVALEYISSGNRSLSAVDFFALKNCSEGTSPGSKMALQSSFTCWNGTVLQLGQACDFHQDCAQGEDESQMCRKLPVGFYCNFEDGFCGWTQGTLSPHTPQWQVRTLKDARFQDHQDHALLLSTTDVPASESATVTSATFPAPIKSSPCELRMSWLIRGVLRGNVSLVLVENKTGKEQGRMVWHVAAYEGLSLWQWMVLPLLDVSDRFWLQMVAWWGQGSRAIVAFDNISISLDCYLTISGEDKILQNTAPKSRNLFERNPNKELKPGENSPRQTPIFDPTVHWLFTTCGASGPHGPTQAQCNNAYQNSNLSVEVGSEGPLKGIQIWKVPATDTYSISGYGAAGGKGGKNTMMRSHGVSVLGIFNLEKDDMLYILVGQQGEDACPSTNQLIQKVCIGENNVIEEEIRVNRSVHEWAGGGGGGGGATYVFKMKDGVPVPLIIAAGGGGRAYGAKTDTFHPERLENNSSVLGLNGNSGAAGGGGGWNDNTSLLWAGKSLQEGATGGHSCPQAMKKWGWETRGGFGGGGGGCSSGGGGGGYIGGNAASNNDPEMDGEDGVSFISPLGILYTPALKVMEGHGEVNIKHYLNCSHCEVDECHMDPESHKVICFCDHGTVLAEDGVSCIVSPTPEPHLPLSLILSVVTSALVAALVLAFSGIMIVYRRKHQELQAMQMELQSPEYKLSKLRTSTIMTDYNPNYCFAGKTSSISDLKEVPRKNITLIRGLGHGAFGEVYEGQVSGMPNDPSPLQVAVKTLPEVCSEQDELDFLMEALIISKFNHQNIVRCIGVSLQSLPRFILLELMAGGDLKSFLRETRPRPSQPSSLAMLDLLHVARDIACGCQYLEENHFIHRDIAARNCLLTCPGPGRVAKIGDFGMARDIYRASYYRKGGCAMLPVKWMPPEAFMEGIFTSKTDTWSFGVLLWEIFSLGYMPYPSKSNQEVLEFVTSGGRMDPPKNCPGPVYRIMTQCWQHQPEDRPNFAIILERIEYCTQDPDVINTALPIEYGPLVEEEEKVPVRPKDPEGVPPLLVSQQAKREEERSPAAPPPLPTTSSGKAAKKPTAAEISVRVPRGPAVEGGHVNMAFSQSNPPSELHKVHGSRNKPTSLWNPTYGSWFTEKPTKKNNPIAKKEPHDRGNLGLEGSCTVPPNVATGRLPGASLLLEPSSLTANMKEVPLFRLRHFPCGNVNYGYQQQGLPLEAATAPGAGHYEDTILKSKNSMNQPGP

[3] = Antiproliferative activity against human ROSA KIT WT cells; type: toxicity, cell-based
[4] = Anticancer activity against human ME-1 cells; type: functional, cell-based
[5] = Inhibition of BTK C481T mutant (unknown origin); parameters: species or system Homo sapiens
[6] = biological target: Tyrosine-protein kinase BTK (Homo sapiens, UniProt Q06187)
Tyrosine-protein kinase BTK, sequence (Q06187 whole entry): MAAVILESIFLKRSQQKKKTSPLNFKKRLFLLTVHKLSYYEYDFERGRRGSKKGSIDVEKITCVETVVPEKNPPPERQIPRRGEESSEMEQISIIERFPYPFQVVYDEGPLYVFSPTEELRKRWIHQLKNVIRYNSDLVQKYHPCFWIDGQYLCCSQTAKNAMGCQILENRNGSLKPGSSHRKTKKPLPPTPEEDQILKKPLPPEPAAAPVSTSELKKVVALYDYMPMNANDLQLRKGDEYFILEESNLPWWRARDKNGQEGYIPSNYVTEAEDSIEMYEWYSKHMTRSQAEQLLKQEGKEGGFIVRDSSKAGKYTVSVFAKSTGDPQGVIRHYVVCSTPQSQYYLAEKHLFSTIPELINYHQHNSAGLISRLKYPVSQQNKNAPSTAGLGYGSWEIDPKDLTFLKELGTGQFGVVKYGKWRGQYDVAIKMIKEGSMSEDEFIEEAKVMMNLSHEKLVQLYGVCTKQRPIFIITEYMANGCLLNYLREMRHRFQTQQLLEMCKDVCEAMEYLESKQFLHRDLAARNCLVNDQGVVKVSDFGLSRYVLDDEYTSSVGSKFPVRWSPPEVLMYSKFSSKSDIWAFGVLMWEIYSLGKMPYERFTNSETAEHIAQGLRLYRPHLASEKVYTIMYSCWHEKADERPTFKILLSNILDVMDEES
Description: Inhibition of wild type BTK in human CLL cells assessed as

RPMI-8226 = assay: Anticancer activity against human RPMI-8226 cells assessed as reduction in cell growth; type: functional, cell-based
U-266 = assay: Antiproliferative activity against human U266B1 cells assessed as reduction in cell viability; type: functional, cell-based

Compound: CN1CCN(c2ccc(C(=O)Nc3n[nH]c4ccc(Cc5cccc(F)c5)cc34)c(NC3CCOCC3)c2)CC1
- IC50 (KARPAS-299): 10 nM

Compound: CCC(=O)N1CC[C@H](Nc2ncnc3c2CN(c2cnc(OC)c(C(F)(F)F)c2)CC3)C1 [LENIOLISIB]
- IC50 [1]: 2.23 nM

Compound: C=CC(=O)N1CCN(c2nc(=O)n(-c3c(C)ccnc3C(C)C)c3nc(-c4c(O)cccc4F)c(F)cc23)[C@@H](C)C1 [SOTORASIB]
- IC50 (NCI-H358): 6 nM
- IC50 (MIA PaCa-2): 9 nM

Compound: CN1CCN(c2ccc(C(=O)Nc3n[nH]c4ccc(Cc5ccccc5)cc34)c(NC3CCOCC3)c2)CC1
- IC50 [2]: 100 nM
- IC50 (KARPAS-299): 180 nM

Compound: CCn1c(=O)c(-c2cc(NC(=O)Nc3ccccc3)c(F)cc2Br)cc2cnc(NC)cc21 [RIPRETINIB]
- IC50 [3]: 34 nM

Compound: O=C(/C=C\n1cnc(-c2cc(C(F)(F)F)cc(C(F)(F)F)c2)n1)NNc1cnccn1 [SELINEXOR]
- IC50 [4]: 34 nM

Compound: COc1ccc(F)cc1C(=O)NCc1ccc(-c2nn([C@@H](C)C(F)(F)F)c(N)c2C(N)=O)cc1 [PIRTOBRUTINIB]
- IC50 [5]: 7.23 nM
- IC50 [6]: 3.68 nM

Compound: CCOC(=O)[C@H](Cc1ccc(F)cc1)NC(=O)[C@@H](N)Cc1ccc(N(CCCl)CCCl)cc1 [MELPHALAN FLUFENAMIDE HYDROCHLORIDE]
- IC50 (RPMI-8226): 4 nM
- IC50 (U-266): 6 nM
